Series [1] is described as follows: pKa by mixed-solvent (methanol-water) method. It is filed as physicochemical. The method, then:
The apparent pKa in aqueous solution was extrapolated from the determined pKa values (the apparent ionization constants in methanol-water solvent) plotted versus the percent methanol used. The apparent pKa of MP470 was determined to be 6.7.

The conditions of series [2]: both, beagle, dog, in vivo, 5 days. On the procedure:
In the first study, 2 doses of MP470 were tested, a low dose of 10 mg/kg followed 48 hours later by a dose of 20 mg/kg. Dosage escalation stopped after the 20 mg/kg dose due to observations of adverse clinical signs. After the second dose, the animals were observed everyday for 3 additional days for adverse clinical signs. Over the course of the 5 days of study both dogs gained weight. […] The female dog experienced retching immediately after dosing. Upon administration of the 20 mg/kg dose both the female and male dog experienced unacceptable adverse effects. After three more days of observation both dogs were euthanized and necropsy was performed. The necropsy observations considered abnormal include thrombus observed in the dosing veins of both dogs and possible mild venous congestion in the meningeal vein between brain hemispheres and in the venous sinus on cranial floor of the male animal. From this study the maximally tolerated dose in beagle dogs was determined to be 20 mg/kg.

The conditions of series [3]: both, Sprague Dawley, rat, in vivo, 72 h. On the procedure: Four groups of Sprague Dawley rats, each consisting of two males and two females, received escalating single doses of 100, 200, 800 and 2000 mg/kg of the test article. MP470.HCl was suspended in an aqueous vehicle constituting 0.5% w/v carboxymethylcellulose and administered by oral gavage. […] Doses were based on body weights on the day of dosing. The animals were euthanized after the last observation. […] A single oral dose no-observed-effect level (NOEL) was 2000 mg/kg. Acute maximum tolerated dose (MTD) was greater than 2000 mg/kg (highest dose tested).

Another series concerns the target cKit (V560G) (h) (Homo sapiens, UniProt P10721, V560G). Briefly: Mutant kinase IC50 screen. It is filed as biochemical. On the procedure: IC50 values for MP470.HCl were determined for four mutant c-Kit kinases, one mutant Flt3 kinase, and two mutant PDGFRα kinases.
Series [4] in a line: in vivo. The note with it: dog. On the procedure:
Two groups of dogs, each consisting of one male and one female, received alternating escalating single doses of 30, 60, 240, 1000, and 2000 mg/kg of the test article. MP470.HCl was administered by capsule. […] No test article related mortalities or clinical signs of toxicity were observed. Test article related effects were limited to emesis following administration of 1000 and 2000 mg/kg doses. Single oral dose NOEL was determined to be 240 mg/kg and the acute oral MTD was 2000 mg/kg (highest dose tested).

The conditions of series [5]: rat, in vivo. On the procedure: Twenty-four rats were placed into four groups each consisting of three animals per sex. The animals were weighed the day before dosing, as well as just prior to dosing.
After intravenous infusion of MP470.HCl at 5 mg/kg, average MP470 peak plasma concentrations of 454.3 ng/mL for males and 370.7 ng/mL for females were attained at 0.083 hours (5 minutes), the first sampling point postdose. After oral administration of non-micronized MP470.HCl, peak plasma concentrations of MP470 were attained at 0.5-12 hours for Group 2 (25 mg/kg) and 4-12 hours for Group 3 (100 mg/kg, suspension). The extent of systemic exposure of rats to MP470, characterized by AUCO-∞, was approximately 3.8-fold and 2.9-fold higher in females than in males for Groups 2 and 3, respectively. Average AUCO-∞ values were higher at 100 mg/kg than at 25 mg/kg and the increases in AUCO-∞ were greater than dose-proportional.
After oral administration of micronized MP470.HCl (Group 4), peak plasma concentrations of MP470 were attained at 4-12 hours. The extent of systemic exposure of rats to MP470, characterized by AUCO-∞, was approximately 3.4-fold higher in females than in males for Group 4. The extent of exposure of rats to MP470, characterized by AUCO-∞, was 1.7-fold (males) and 1.4-fold (females) higher for non-micronized MP470 HCl (Group 3) than for micronized MP470 HCl (Group 4).

Series [6] in a line: in vivo. The note with it: rat; for severely toxic dose / severely toxic dose (STD): 28 days. The method, then:
In a chronic tolerability study of MP470 hydrochloride salt in the rat, the animals were dosed 20, 60, 100 or 200 mg/kg/d (males) and 6, 20, 60 and 100 mg/kg/d (females) daily for 28 days. One female rat died after 5 doses at 100 mg/kg/d, however the it was not clear if this was related to the drug. Two additional female rats died on days 28 and 42 (control and 60 mg/kg/d) possibly due the trauma induced by repeated blood collection. There were no clinical signs of severe toxicity prior to deaths. The clinical abnormalities included hunched posture, soft feces and sporadic occurrence of hair loss. […] Although all animals gained weight during the study, the relative gain was lower in the males at 200 mg/kg/d (70% control) and females at 60 and 100 mg/kg/d (83 and 57% control). […] There were signs of recovery after cessation of dosing. There were no drug related adverse ophthalmologic effects or change hematology parameters. Significant clinical chemistry changes included decreases in glucose and triglyceride levels in males at 200 mg/kg/d, and alterations in cholesterol, troponin-1 and alkaline phosphatase in females (60 and 100 mg/kg/d). There was no correlative histopathology for these alterations. There were no drug related adverse changes in urinalysis or organ weight changes. There were sporadic alterations in organ weights but without corresponding microscopic pathology. […] There was adequate systemic exposure in both sexes; however the exposure was not dose-proportional (lower at higher doses). At all doses exposure to females was higher than that in males and exposure on day 27 was higher than that on day 1. There was substantial variability in the half-lives and ranged from 2 to 8 hours. The no observed effect level (NOEL) was 60 mg/kg/d (360 mg/m2/d) for males and 20 mg/kg/d (120 mg/m2/d) for females. In the absence of clear target organ toxicity or signs of severe toxicity a severely toxic dose (STD) could not be calculated. STD is likely to be higher than 100 mg/kg/d for females and 200 mg/kg/d for the males.

The structures appear in SMILES notation. Like-named read-outs stand apart in the source and are kept apart here.

Sequence of cKit (V560G) (h) (P10721 26-976 V560G): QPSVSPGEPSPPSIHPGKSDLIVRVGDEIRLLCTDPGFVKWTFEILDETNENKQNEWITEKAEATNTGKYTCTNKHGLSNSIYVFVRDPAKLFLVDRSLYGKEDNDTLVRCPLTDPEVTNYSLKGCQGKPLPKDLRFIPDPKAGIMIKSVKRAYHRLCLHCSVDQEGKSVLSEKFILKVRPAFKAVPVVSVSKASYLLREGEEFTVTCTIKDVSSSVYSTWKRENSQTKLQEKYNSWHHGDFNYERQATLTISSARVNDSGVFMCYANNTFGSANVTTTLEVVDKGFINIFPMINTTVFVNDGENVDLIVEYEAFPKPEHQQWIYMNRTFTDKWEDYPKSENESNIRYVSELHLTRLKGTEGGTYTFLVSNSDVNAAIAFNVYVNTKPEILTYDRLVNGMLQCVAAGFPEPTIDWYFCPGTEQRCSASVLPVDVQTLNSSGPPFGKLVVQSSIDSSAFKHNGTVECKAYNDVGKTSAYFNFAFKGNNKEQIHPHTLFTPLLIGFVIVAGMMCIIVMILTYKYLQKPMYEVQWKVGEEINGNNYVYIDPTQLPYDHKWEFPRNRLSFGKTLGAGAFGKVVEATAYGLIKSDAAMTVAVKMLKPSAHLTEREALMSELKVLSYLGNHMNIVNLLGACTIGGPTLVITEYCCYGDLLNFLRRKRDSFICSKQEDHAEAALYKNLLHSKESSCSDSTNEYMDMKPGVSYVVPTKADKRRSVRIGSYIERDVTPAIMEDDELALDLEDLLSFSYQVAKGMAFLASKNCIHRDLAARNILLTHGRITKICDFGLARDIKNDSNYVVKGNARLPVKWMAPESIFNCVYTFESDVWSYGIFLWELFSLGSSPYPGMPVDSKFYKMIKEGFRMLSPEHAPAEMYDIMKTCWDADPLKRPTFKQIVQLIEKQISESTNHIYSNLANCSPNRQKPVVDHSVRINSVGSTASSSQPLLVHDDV

Take `S=C(NCc1ccc2c(c1)OCO2)N1CCN(c2ncnc3c2oc2ccccc23)CC1` [MP470, 4-[1]benzofuro[3,2-d]pyrimidin-4-yl-N-(1,3-benzodioxol-5-ylmethyl)piperazine-1-carbothioamide]: the “pKa (apparent ionization constant)” value in series [1] (30% (v/v) methanol) is given as 6.81; in series [1] (60% (v/v) methanol) it was 7.09; in series [1] (90% (v/v) methanol) it was 7.10. Further, in series [1] (aqueous solution, extrapolated from pKa values in methanol-water), the “apparent pKa” value was 6.7. In addition, in series [2], the maximally tolerated dose was determined as 20 mg/kg.

As for `Cl.S=C(NCc1ccc2c(c1)OCO2)N1CCN(c2ncnc3c2oc2ccccc23)CC1` [MP470.HCl, 4-[1]benzofuro[3,2-d]pyrimidin-4-yl-N-(1,3-benzodioxol-5-ylmethyl)piperazine-1-carbothioamide hydrochloride], the “single oral dose no-observed-effect level (NOEL)” value in series [3] came out at 2000 mg/kg. For the same compound, the “Acute maximum tolerated dose (MTD)” value in series [3] (po) is recorded as “greater than 2000 mg/kg”. At cKit (V560G) (h), this compound gave a half-inhibitory concentration (IC50) of 0.034 µM. This compound also registered an MTD at 24 h in “in vivo [4]” (both sexes, po) of 2000 mg/kg. For the same compound, in “in vivo [4]” (both, 24 h), the “Single oral dose NOEL” value turned out to be 240 mg/kg. For the same compound, the “Bioavailability (%)” value stood at 100.21% in series [5] (female) and 43.40% in series [5] (male). The “AUC INF” value was 2.5309 µg·h/mL in series [5] (female, iv, 5 mg/kg); 12.6816 µg·h/mL in series [5] (female, po, 25 mg/kg); 1.5463 µg·h/mL in series [5] (male, iv, 5 mg/kg); 3.3551 µg·h/mL in series [5] (male, po, 25 mg/kg). For the same compound, the “t1/2” value lay in the range of 2.6 to 2.9 h in series [5] (female, iv, 5 mg/kg); 4.0 to 17.4 h in series [5] (female, po, 25 mg/kg); 3.1 to 4.4 h in series [5] (male, iv, 5 mg/kg); 2.8 to 4.2 h in series [5] (male, po, 25 mg/kg). Also, the half-life in “in vivo [6]” (both sexes, rats, daily oral dosing 28 days, read-out: half-lives) fell in the range of 2 to 8 h. Besides, the values for the severely toxic dose in “in vivo [6]” (female) and in the series “in vivo [6]” (male) were more than 600 mg/m2/d and more than 1200 mg/m2/d, respectively. In addition, the “severely toxic dose (STD)” value in “in vivo [6]” (female) is “higher than 100 mg/kg/d”; in “in vivo [6]” (male), more than 200 mg/kg/day. In the series “in vivo [6]”, the “cardiotoxicity (histopathology)” value is “no evidence of cardiotoxicity in either sex”.

The IC50 is the concentration that gives 50% inhibition. Higher therefore signals weaker potency in that assay.

(Values after US8445502B2, “Pharmaceutical formulations comprising salts of a protein kinase inhibitor and methods of using same” (Astex Pharmaceuticals, Inc., priority 2007, dated 2013).)
